Measurements: patent publication US20250281480A1, “PHARMACEUTICAL DRY POWDER INHALATION FORMULATION” (Bayer Aktiengesellschaft, priority 2021, published 2025)

Experiments:
healthy male subjects = assay: Phase I, healthy male subjects, 7 days: bodyplethysmography, total specific airway resistance (sRaw); assay type: in vivo, human
Method: (§1) Healthy White male subjects, aged 18 to 45 years and with a body mass index (BMI) above/equal 18.5 and below/equal 29.9 kg/m2 were treated in a clinical pharmacological phase I study on seven days with inhaled once daily doses of 480 or 1000 or 2000 μg (2 capsules of 1000 μg) (nominal dose) of dry powder formulations of example 2 or Placebo. The subjects inhaled the drug powder from capsules (see under C, e.g. tables 22 and 23) inserted into a handheld inhalation device by one deep inhalative breath. The dry powder formulation of the drug is dispersed into the airstream and fine particles are transported into the deep parts of the lung where it is intended to cause a vasodilation of the blood vessels in PH patients for a substantial reduction of increased blood pressure in the central pulmonary blood vessels in PAH patients or other subtypes of PH. This effect cannot be shown in subjects with healthy lungs. In addition inhaled drug causes a dilation of the bronchial airways and thus also improves disease states of lung diseases in PH patients with pathological bronchoconstriction. This effect was measured via bodyplethysmography as reduction of Specific Airway Resistance in healthy subjects. […]

[1] = Micronization of monohydrate II and monohydrate I (spiral jet mill): solid form after micronization; assay type: physicochemical
Description: Generally no amorphization even partial nor form conversion should happen during the necessary micronization step.
The corresponding batches (examples 8a-8d) were micronized using a 50 mm spiral jet mill and pressurized nitrogen with the following parameters (see table 16b).
The corresponding batches were micronized using a 100 mm spiral jet mill and pressurized nitrogen with the following parameters (see table 16c).

[2] = system: anesthetized PAH minipigs; assay: PAH minipig, intratracheal application of dry powder formulations and of different hydrates (PAP, BP); assay type: in vivo, Göttingen Minipigs; settings: 375 μg/kg i.t.
Method: Healthy Göttingen Minipigs® Ellegaard (Ellegaard, Denmark) of both sexes and having a weight of 2-6 kg were used. The animals were sedated by i.m. administration of about 25 mg/kg ketamine and about 10 mg/kg azaperone. Anaesthesia was initiated by i.v. administration of about 2 mg/kg ketamine and about 0.3 mg/kg midazolam. Maintenance of anaesthesia was by i.v. administration of about 7.5-30 mg/kg/h ketamine and about 1-4 mg/kg/h midazolam (rate of infusion 1-4 ml/kg/h) and about 150 μg/kg/h pancuronium bromide (for example Pancuronium-Actavis). After intubation, the animals were ventilated by the ventilator at a constant respiratory volume (10-12 ml/kg, 35 breaths/min; Avea®, Viasys Healthcare, USA, or Engström Carestation, GE Healthcare, Freiburg, Germany) such that an end-tidal CO2 concentration of about 5% was achieved. Ventilation was performed with room air, enriched with about 40% oxygen (normoxia). For the measurement of the haemodynamic parameters such as pulmonary arterial pressure (PAP), blood pressure (BP) and heart rate (HR), catheters were inserted into the carotid artery to measure the blood pressure, and a Swan-Ganz® catheter was introduced in a flow-directed manner via the jugular vein into the pulmonary artery. The haemodynamic signals were recorded and evaluated by means of pressure transducers (Combitransducer, B. Braun, Melsungen, Germany)/amplifiers and Ponemah® as data acquisition software.
About 0.3-0.75 μg/kg/min of 9,11-didesoxy-9α,11α-epoxymethanoprostaglandine F2α (U-44069; Sigma, cat. no. D0400, or Cayman Chemical Company, cat. no. 16440), dissolved in physiological saline, were infused to achieve an increase of the mean pulmonary arterial pressure to values of over 25 mmHg.
After characterization of the effects of comparative example 11 after nebulization of compound solutions, in a further step the effects of crystalline forms of comparative example 11, e.g. sesquihydrate, e.g. example 6e on PAP and BP after inhaled application of different dry powder lactose formulations (table 52) were studied in anesthetized PAH minipigs.
As reference pure Lactose vehicle was applied in the beginning of each experiment.

[3] = Phase I, healthy male subjects, 7 days: plasma concentrations over time; assay type: in vivo, human; settings: after first inhalation, all doses
Method: as §1

[4] = Storage stability of pseudopolymorphic forms (XRPD); assay type: physicochemical
cGMP = assay: Phase I, healthy male subjects, inhaled once daily for 7 days: cGMP in blood samples; assay type: in vivo, human
Method: Healthy White male subjects, aged 18 to 45 years and with a body mass index (BMI) above/equal 18.5 and below/equal 29.9 kg/m2 were treated in a clinical pharmacological phase I study on seven days with inhaled once daily doses of 480 or 1000 or 2000 μg (2 capsules of 1000 μg) (nominal dose) of dry powder formulations of example 2 or Placebo. The subjects inhaled the drug powder from capsules (see under C, e.g. tables 22 and 23) inserted into a handheld inhalation device by one deep inhalative breath. The dry powder formulation of the drug is dispersed into the airstream and fine particles are transported into the deep parts of the lung where it is intended to cause a vasodilation of the blood vessels in PH patients for a substantial reduction of increased blood pressure in the central pulmonary blood vessels in PAH patients or other subtypes of PH. This effect cannot be shown in subjects with healthy lungs. In addition inhaled drug causes a dilation of the bronchial airways and thus also improves disease states of lung diseases in PH patients with pathological bronchoconstriction. This effect was measured via bodyplethysmography as reduction of Specific Airway Resistance in healthy subjects. After the deep inhalative breath the subjects hold breath for 2 seconds, so that the dry powder drug condenses from the airstream onto the surface of the deeper lung areas where it is deposited close to its site of intended pharmacological action. The drug dissolutes over the day and equilibrates the lung via lining fluid.
Drug activity in healthy men was controlled in the healthy subjects by analysing blood samples for cGMP, the immediate product of sGC pharmacological activation prior after the first and after the last drug inhalation of the 7 days treatment in comparison to measurements on the pretreatment day for all doses.

[5] = XRPD
Method: There was no sample preparation.
3 g (5S)—{[2-(4-Carboxyphenyl)ethyl][2-(2-{[3-chloro-4′-(trifluoromethyl)biphenyl-4-yl]methoxy}-phenyl)ethyl]amino}-5,6,7,8-tetrahydroquinoline-2-carboxylic acid monohydrate I, (material prepared in analogy to example 3/4) were suspended in 20 mL of methanol. The suspension was stirred at ambient conditions for eight days. The residue was filtered and the resulting solid was dryed at ambient conditions. • water content: 4.8% water • Raman: see table 13, see FIG. 17 • IR: see table 14, see FIG. 24 • XRPD: see table 12, see FIG. 10

## O=C(O)c1ccc(CCN(CCc2ccccc2OCc2ccc(-c3ccc(C(F)(F)F)cc3)cc2Cl)[C@H]2CCCc3nc(C(=O)O)ccc32)cc1 [Example 2, (5S)—{[2-(4-Carboxyphenyl)ethyl][2-(2-{[3-chloro-4′-(trifluoromethyl)biphenyl-4-yl]methoxy}phenyl)-ethyl]amino}-5,6,7,8-tetrahydroquinoline-2-carboxylic Acid as Monohydrate II]
Healthy male subjects; 480 μg inhaled once daily, 0 D 06 H 00 M
  total specific airway resistance (means): 0.800 ± 0.187 kPa/sec
Healthy male subjects; 2000 μg inhaled once daily, 7 D 06 H 00 M
  total specific airway resistance (means): 0.730 ± 0.151 kPa/sec
[1]; example 2 batch
  XRPD after micronization: monohydrate II with partial amorphization
[1]; example 8a: VA jet mill (diameter 50 mm), 25° C.
  solid form after micronization: transformation from monohydrate II to monohydrate I
[1]; example 8b, several conditions, even low stress
  solid form after micronization: partial amorphization
[2]; micronized hydrates
  efficacy with regard to PAP reduction and systemic BP reduction: comparable efficacy
[2]; time 160, per animal
  PAP(mean): 27.8 mmHg
[3]
  measurable plasma concentration persisted for: 48 h
[4]; example 7a: brown glass snap on closure, 25° C., 60% relative humidity
  Result (solid form after storage): monohydrate II
[4]; example 7b: polyethylene, 25° C., 60% relative humidity
  Result (solid form after storage): monohydrate I
[4]; example 7c: polyethylene, 40° C., 75% relative humidity
  Result (solid form after storage): monohydrate I
[4]; example 7d: brown glass closed with paper filter disc, 40° C., 75% relative humidity
  Result (solid form after storage): monohydrate I
cGMP; 480 μg inhaled once daily, 7 D 15 H 00 M
  cGMP over time (means): 8.56 ± 2.80 nmol/L
cGMP; 480 μg inhaled once daily, 8 D 00 H 00 M
  cGMP over time (means): 7.20 ± 3.23 nmol/L
cGMP; 480 μg inhaled once daily, 8 D 12 H 00 M
  cGMP over time (means): 6.20 ± 2.00 nmol/L
cGMP; 480 μg inhaled once daily, 9 D 00 H 00 M
  cGMP over time (means): 5.64 ± 2.53 nmol/L
cGMP; 480 μg inhaled once daily, −0 D 09 H 00 M
  cGMP over time (means): 5.60 ± 1.08 nmol/L
cGMP; 480 μg inhaled once daily, −1 D 02 H 00 M
  cGMP over time (means): 5.40 ± 1.41 nmol/L
cGMP; 1000 μg inhaled once daily, 5 D 00 H 00 M
  cGMP over time (means): 8.50 ± 2.13 nmol/L
cGMP; 1000 μg inhaled once daily, −0 D 20 H 00 M
  cGMP over time (means): 4.78 ± 1.37 nmol/L
cGMP; 1000 μg inhaled once daily, −0 D 22 H 00 M
  cGMP over time (means): 5.10 ± 1.46 nmol/L
cGMP; 2000 μg inhaled once daily, 2 D 00 H 00 M
  cGMP over time (means): 6.40 ± 2.09 nmol/L
cGMP; 2000 μg inhaled once daily, 3 D 00 H 00 M
  cGMP over time (means): 10.00 ± 3.51 nmol/L
cGMP; 2000 μg inhaled once daily, 8 D 00 H 00 M
  cGMP over time (means): 16.00 ± 5.77 nmol/L
cGMP; 2000 μg inhaled once daily, 9 D 12 H 00 M
  cGMP over time (means): 9.40 ± 3.10 nmol/L
cGMP; 2000 μg inhaled once daily, −0 D 18 H 00 M
  cGMP over time (means): 4.32 ± 1.33 nmol/L

## O.O.O=C(O)c1ccc(CCN(CCc2ccccc2OCc2ccc(-c3ccc(C(F)(F)F)cc3)cc2Cl)[C@H]2CCCc3nc(C(=O)O)ccc32)cc1 [Example 6f]
[5]
  solid form after drying: went amorphous
